Assay results taken from ChEMBL document CHEMBL1201862, “PubChem BioAssay data set” (2004).
“And” between values parts separate entries of the source, which are not always exact repeats. Equal entries are not always repeated.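 Growth conditions: 96-well plates. Treatment: test compound, 48 hours, 5 concentrations. Analysis: linear interpolation between bracketing concentrations; unreached endpoints set to highest concentration. GI50: concentration for 50% inhibition of growth.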 The source made the active and inactive calls. No stated cut-off is given here; in the data, active = GI50 up to about 1.1 µM and inactive = higher.

Experiments:
Assay in all cases: growth of human tumour cells (NCI), 48 h
SK-MEL-2 = system: SK-MEL-2
MOLT-4 = system: MOLT-4
COLO 205 = system: COLO 205
SN12C = system: SN12C
786-0 = system: 786-0
ACHN = system: ACHN
NCI-H226 = system: NCI-H226
SK-OV-3 = system: SK-OV-3
SNB-75 = system: SNB-75
SF-268 = system: SF-268
NCI-H522 = system: NCI-H522
HCC 2998 = system: HCC 2998
OVCAR-5 = system: OVCAR-5
CCRF-CEM = system: CCRF-CEM
OVCAR-8 = system: OVCAR-8
SF-539 = system: SF-539
OVCAR-4 = system: OVCAR-4
SK-MEL-28 = system: SK-MEL-28
SF-295 = system: SF-295
SW-620 = system: SW-620

Compound | GI50 (SK-MEL-2) | GI50 (MOLT-4) | GI50 (COLO 205) | GI50 (SN12C) | GI50 (786-0) | GI50 (ACHN) | GI50 (NCI-H226) | GI50 (SK-OV-3) | GI50 (SNB-75) | GI50 (SF-268) | GI50 (NCI-H522) | GI50 (HCC 2998) | GI50 (OVCAR-5) | GI50 (CCRF-CEM) | GI50 (OVCAR-8) | GI50 (SF-539) | GI50 (OVCAR-4) | GI50 (SK-MEL-28) | GI50 (SF-295) | GI50 (SW-620)
CCOC(=O)n1cncc1CC(NC(=O)Cc1c(C(=O)C=C(C)C)[nH]c2ccccc12)C(=O)OC (stereo not given) | 17 µM (inactive) | 20 µM (inactive) | 18.1 µM (inactive) | 16.3 µM (inactive) | 21.5 µM (inactive) | 19.3 µM (inactive) | 20.8 µM (inactive) | 17.5 µM (inactive) | 22.9 µM (inactive) | 18 µM (inactive) | 3.56 µM (inactive) | 13.9 µM (inactive) | 15.5 µM (inactive) | 0.708 µM (active) | 18.5 µM (inactive) | 19.5 µM (inactive) | 18.5 µM (inactive) | 16 µM (inactive) | 17.7 µM (inactive) | 25.7 µM (inactive)
COc1cc(C2c3cc4c(cc3OC(NNS(=O)(=O)c3ccc(C)cc3)C2C)OCO4)cc(OC)c1OC (stereo not given) | 0.984 µM (active) | 1.89 µM (inactive) | 2.81 µM (inactive) | 4.21 µM (inactive) | 7.76 µM (inactive) | 3 µM (inactive) | 3.14 µM (inactive) | 4.13 µM (inactive) | 3.02 µM (inactive) | 3.95 µM (inactive) | 1.25 µM (inactive) | 2.94 µM (inactive) | 9.14 µM (inactive) | 1.01 µM (active) | 8.91 µM (inactive) | 0.984 µM (active) | 7.59 µM (inactive) | 2.94 µM (inactive) | 0.989 µM (active) | 1.01 µM (active)
CN/N=C(/CCN1CCCC1)CC(c1ccccc1)c1c(O)c2ccccc2oc1=O (stereo not given) | > 100 µM (inactive) | > 65.3 µM (inactive) | 34.9 µM (inactive) | > 100 µM (inactive) | > 100 µM (inactive) | > 100 µM (inactive) | > 65.6 µM (inactive) | > 100 µM (inactive) | 19.4 µM (inactive) | > 100 µM (inactive) | > 100 µM (inactive) | > 100 µM (inactive) | > 100 µM (inactive) | > 71.9 µM (inactive) | > 100 µM (inactive) | > 100 µM (inactive) | > 100 µM (inactive) | > 100 µM (inactive) | > 100 µM (inactive) | > 100 µM (inactive)
O=C1N/C(=N/N=C\C(O)C(O)C(O)C(O)CO)N/C1=C/c1ccc(Cl)cc1 (stereo not given) | > 100 µM (inactive) | 46 µM (inactive) and > 10 µM (inactive) | > 100 µM (inactive) | > 100 µM (inactive) | > 100 µM (inactive) | > 100 µM (inactive) | 74.8 µM (inactive) | > 100 µM (inactive) | > 100 µM (inactive) | > 100 µM (inactive) and 98.2 µM (inactive) | 55.6 µM (inactive) and 58.1 µM (inactive) | 95.7 µM (inactive) and 99.3 µM (inactive) | > 100 µM (inactive) | 40.4 µM (inactive) | > 100 µM (inactive) | > 100 µM (inactive) | 37.2 µM (inactive) and 17.7 µM (inactive) | > 100 µM (inactive) | > 100 µM (inactive) | > 100 µM (inactive)
CC1=C(C(=O)N(C)c2ccc(Cl)c(C(=O)OC(C)C)c2)SCCO1 | > 100 µM (inactive) | 38.5 µM (inactive) | 70.8 µM (inactive) | > 100 µM (inactive) | > 100 µM (inactive) | 61.5 µM (inactive) | 44.6 µM (inactive) | > 100 µM (inactive) | 18.7 µM (inactive) | > 100 µM (inactive) | 44.9 µM (inactive) | > 100 µM (inactive) | > 100 µM (inactive) | > 100 µM (inactive) | 70.6 µM (inactive) | > 100 µM (inactive) | 42.4 µM (inactive) | > 100 µM (inactive) | 60.1 µM (inactive) | > 100 µM (inactive)
O=C(Cc1ccc(Cl)c(Cl)c1)NCCCN1CCN(CCCN2CCCCC2)CC1 | 6.59 µM (inactive) | 10.9 µM (inactive) | 13.2 µM (inactive) | 18.8 µM (inactive) | 16.4 µM (inactive) | 27.2 µM (inactive) | 21.7 µM (inactive) | 19.2 µM (inactive) | 19.5 µM (inactive) | 19.5 µM (inactive) | 15.7 µM (inactive) | 2.89 µM (inactive) | 20 µM (inactive) | 16 µM (inactive) | 27.6 µM (inactive) | 14.2 µM (inactive) | 37.8 µM (inactive) | 2.56 µM (inactive) | 19 µM (inactive) | 19.9 µM (inactive)
O=C1CCCCC1C1(O)C(=O)Nc2cc(F)ccc21 (stereo not given) | > 100 µM (inactive) | > 100 µM (inactive) | > 100 µM (inactive) | > 100 µM (inactive) | > 100 µM (inactive) | > 100 µM (inactive) | > 100 µM (inactive) | > 100 µM (inactive) | > 100 µM (inactive) | > 100 µM (inactive) | > 100 µM (inactive) | > 100 µM (inactive) | > 100 µM (inactive) | > 100 µM (inactive) | > 100 µM (inactive) | > 100 µM (inactive) | > 100 µM (inactive) | > 100 µM (inactive) | > 100 µM (inactive) | > 100 µM (inactive)
O=C1CC(S(=O)(=O)O)C=C1Nc1cccc(Cl)c1 (stereo not given) | > 100 µM (inactive) | > 100 µM (inactive) | > 100 µM (inactive) | > 100 µM (inactive) | > 100 µM (inactive) | > 100 µM (inactive) | > 100 µM (inactive) | > 100 µM (inactive) | > 100 µM (inactive) | > 100 µM (inactive) | > 100 µM (inactive) | > 100 µM (inactive) | > 100 µM (inactive) | > 100 µM (inactive) | > 100 µM (inactive) | > 100 µM (inactive) | > 100 µM (inactive) | > 100 µM (inactive) | > 100 µM (inactive) | > 100 µM (inactive)
Cc1ccc(C(=O)Nc2ccc(CP(=O)(O)O)cc2CP(=O)(O)O)cc1NC(=O)c1cccc(NC(=O)Nc2cccc(C(=O)Nc3cc(C(=O)Nc4ccc(CP(=O)(O)O)cc4CP(=O)(O)O)ccc3C)c2)c1 | > 100 µM (inactive) | > 100 µM (inactive) | > 100 µM (inactive) | > 100 µM (inactive) | > 100 µM (inactive) | > 100 µM (inactive) | > 100 µM (inactive) | > 100 µM (inactive) | > 100 µM (inactive) | > 100 µM (inactive) | > 100 µM (inactive) | > 100 µM (inactive) | > 100 µM (inactive) | > 100 µM (inactive) | > 100 µM (inactive) | > 100 µM (inactive) | > 100 µM (inactive) | > 100 µM (inactive) | > 100 µM (inactive) | 41.8 µM (inactive)
COc1cccc(C=O)c1[O-].COc1cccc(C=O)c1[O-].[Zn+2] | 48.9 µM (inactive) | 33.8 µM (inactive) | > 100 µM (inactive) | 39.7 µM (inactive) | 49 µM (inactive) | 44.1 µM (inactive) | > 100 µM (inactive) | 36.6 µM (inactive) | 42 µM (inactive) | 55.7 µM (inactive) | > 100 µM (inactive) | > 100 µM (inactive) | 53.7 µM (inactive) | 28.9 µM (inactive) | 43.8 µM (inactive) | 45.2 µM (inactive) | 57.5 µM (inactive) | 76.7 µM (inactive) | 23.3 µM (inactive) | 56.1 µM (inactive)
NC(=O)c1ncn2c(=O)n(CCCl)nnc12 [MITOZOLOMIDE] | 249 µM (inactive) | 45.2 µM (inactive) | 112 µM (inactive) | 115 µM (inactive) | 28.8 µM (inactive) | 60.4 µM (inactive) | 158 µM (inactive) | 52.6 µM (inactive) | 50 µM (inactive) | 31.6 µM (inactive) | 131 µM (inactive) | 172 µM (inactive) | 225 µM (inactive) | 32.9 µM (inactive) | 101 µM (inactive) | 31 µM (inactive) | 187 µM (inactive) | 252 µM (inactive) | 37.7 µM (inactive) | 135 µM (inactive)
CCOC(=O)/C=C/c1ccccn1 | > 100 µM (inactive) | > 100 µM (inactive) | > 100 µM (inactive) | > 100 µM (inactive) | > 100 µM (inactive) | > 100 µM (inactive) | > 100 µM (inactive) | > 100 µM (inactive) | > 100 µM (inactive) | > 100 µM (inactive) | > 100 µM (inactive) | > 100 µM (inactive) | > 100 µM (inactive) | > 100 µM (inactive) | > 100 µM (inactive) | > 100 µM (inactive) | > 100 µM (inactive) | > 100 µM (inactive) | > 100 µM (inactive) | > 100 µM (inactive)
Cc1ccc(NC(=O)/C(Cc2cc(=O)oc3cc(O)ccc23)=N\NC(=O)C[N+](C)(C)C)cc1C | > 100 µM (inactive) | > 100 µM (inactive) | > 100 µM (inactive) | > 100 µM (inactive) | > 100 µM (inactive) | > 100 µM (inactive) | > 100 µM (inactive) | > 100 µM (inactive) | > 100 µM (inactive) | > 100 µM (inactive) | > 100 µM (inactive) | > 100 µM (inactive) | > 100 µM (inactive) | > 100 µM (inactive) | > 100 µM (inactive) | > 100 µM (inactive) | > 100 µM (inactive) | > 100 µM (inactive) | > 100 µM (inactive) | > 100 µM (inactive)
